Test results from patent US12233115B2, “Long-acting parathyroid hormone” (Extend Biosciences, Inc., priority 2022, dated 2025).
pKd: −log10 of the molar value.

Legend:
[1] = target: T1, vitamin D binding protein (DBP) (Homo sapiens, UniProt P02774); test: Bio-layer interferometry binding of DBP to immobilized biotinylated conjugate; details: BLI steady state fit, DBP 0-75 μM; read-out: KD (binding equilibrium constant)
T1 construct: purchased Athens Research and Technology 16-16-070307
T1 sequence (P02774 17-474): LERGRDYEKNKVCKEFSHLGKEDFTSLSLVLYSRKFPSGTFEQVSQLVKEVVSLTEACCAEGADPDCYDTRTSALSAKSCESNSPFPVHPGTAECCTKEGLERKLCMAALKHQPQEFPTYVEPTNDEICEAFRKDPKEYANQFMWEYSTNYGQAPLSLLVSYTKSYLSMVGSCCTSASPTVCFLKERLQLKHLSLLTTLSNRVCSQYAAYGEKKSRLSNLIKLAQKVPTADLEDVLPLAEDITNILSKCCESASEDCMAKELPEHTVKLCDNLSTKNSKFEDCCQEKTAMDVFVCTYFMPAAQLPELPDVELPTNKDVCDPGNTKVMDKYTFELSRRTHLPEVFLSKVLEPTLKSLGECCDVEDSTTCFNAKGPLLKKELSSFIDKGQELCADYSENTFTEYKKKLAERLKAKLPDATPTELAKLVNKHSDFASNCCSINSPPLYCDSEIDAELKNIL
Description: EXT607 and EXT608 were biotinylated using the EZ-Link Sulfo-NHS Biotin No-Weigh kit (Thermo Fisher Scientific, Waltham, MA, Catalog No. PIA39256). One mmol of biotin was reacted with 1 mmol of conjugate for 1 hour at room temperature. Unbound biotin was separated from biotinylated conjugate with a PD-10 desalting column (GE Lifesciences/Cytiva, Marlborough, MA, Catalog No. 17085101). The biotinylation ratio was quantitated using the Pierce Biotin Quantitation Kit (Thermo Fisher Scientific, Waltham, MA, Catalog No. PI28005). DBP was purchased from Athens Research and Technology (Athens, GA, Catalog No. 16-16-070307).
Affinity measurements were collected on the Octet Red96 using prehydrated Dip and Read Streptavidin (SA) Biosensors (ForteBio, Fremont, CA, Catalog No. 18-5021). Reagents were diluted into phosphate buffered saline (PBS) with 0.02% Tween 20 in a black 96-well plate. Biotinylated EXT607 or EXT608 were prepared at a biotin concentration of 50 μg/mL and loaded onto the SA tips for 2 minutes. A buffer-only negative loading control was used to measure non-specific binding of DBP to the SA biosensors. A titration of DBP ranging from 0 to 75 μM was prepared. DBP was associated to the loaded tips for 5 minutes and dissociated with buffer solution for 10 minutes.

[2] = Single dose pharmacokinetics of EXT607 in male cynomolgus monkeys; type: in vivo; details: cynomolgus monkey, in vivo, sc; NHP, after subcutaneous dosing; read-out: terminal half-life
Description: In a single dose pharmacokinetic study, EXT607 was formulated in PBS and groups of male cynomolgus monkeys (n=3), weighing approximately 4 kg each, were dosed at a volume of 1 ml/kg as follows: Group 1, 20 μg/kg intravenous; Group 2, 7 μg/kg subcutaneous; Group 3, 20 μg/kg subcutaneous; Group 4, 70 μg/kg subcutaneous. Blood (1.0 mL) was collected via the jugular vein cannula, transferred into tubes containing K2EDTA, and kept on wet ice until processed for plasma. Blood samples were collected at 0 (pre-dose), 0.083 (IV only), 0.25, 0.5, 1, 2, 4, 6, 8, 12, 24, 36, 48, 60 and 72 h post-dose.
Pharmacokinetic parameters were determined from the plasma concentration versus time data (Table 5) by a non-compartmental analysis with uniform weighting using Phoenix® WinNonlin® Version 6.3 (Certara L.P. (Pharsight), St. Louis, MO). The concentration versus time data were analyzed using the IV bolus or extravascular administration models. Best fit Lambda z ranges were used.
At low doses, the rate of subcutaneous absorption is slower than at high doses, leading to a lower Cmax and an overall flatter PK profile.

pKd [1]: 5.28
Compound: C=C1CC[C@H](OCCCNC(=O)CCOCCOCCOCCOCCOCCOCCOCCOCCOCCOCCOCCOCCOCCOCCOCCOCCOCCOCCOCCOCCOCCOCCOCCOCCOCCOCCOCCOCCOCCOCCOCCOCCOCCOCCOCCOCCNC(=O)CCN2C(=O)CC(SC[C@H](NC(=O)[C@H](Cc3ccccc3)NC(=O)[C@H](CC(N)=O)NC(=O)[C@H](Cc3c[nH]cn3)NC(=O)[C@@H](NC(=O)[C@H](CC(=O)O)NC(=O)[C@H](CCC(N)=O)NC(=O)[C@H](CC(C)C)NC(=O)[C@H](CCCCN)NC(=O)[C@H](CCCCN)NC(=O)[C@H](CCCNC(=N)N)NC(=O)[C@H](CC(C)C)NC(=O)[C@H](Cc3c[nH]c4ccccc34)NC(=O)[C@H](CCC(=O)O)NC(=O)[C@@H](NC(=O)[C@H](CCCNC(=N)N)NC(=O)[C@H](CCC(=O)O)NC(=O)[C@H](CCSC)NC(=O)[C@H](CO)NC(=O)[C@H](CC(N)=O)NC(=O)[C@H](CC(C)C)NC(=O)[C@H](Cc3c[nH]cn3)NC(=O)[C@H](CCCCN)NC(=O)CNC(=O)[C@H](CC(C)C)NC(=O)[C@H](CC(N)=O)NC(=O)[C@H](Cc3c[nH]cn3)NC(=O)[C@H](CCSC)NC(=O)[C@H](CC(C)C)NC(=O)[C@H](CCC(N)=O)NC(=O)[C@@H](NC(=O)[C@H](CCC(=O)O)NC(=O)[C@H](CO)NC(=O)[C@@H](NC(=O)[C@@H](N)CO)C(C)C)[C@@H](C)CC)C(C)C)C(C)C)C(N)=O)C2=O)C/C1=C/C=C1\CCC[C@]2(C)[C@@H]([C@H](C)CCCC(C)(C)O)CC[C@@H]12 (some centres unmarked) [EXT608]
half-life [2]: 24 to 32 h
